From ChEMBL document CHEMBL1201862, “PubChem BioAssay data set” (2004)
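Assay format: 96-well plates, 48-hour exposure. Abbreviation: GI50, concentration required for 50% inhibition of growth.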 The source made the active and inactive calls. No stated cut-off is given here; in the data, active = GI50 up to about 1.1 µM and inactive = higher.

What was measured:
Test in all cases: NCI-60 cell line screen, 48 h
ACHN = tested on: ACHN
SF-295 = tested on: SF-295
786-0 = tested on: 786-0
SW-620 = tested on: SW-620
HOP-62 = tested on: HOP-62
NCI-H460 = tested on: NCI-H460
CCRF-CEM = tested on: CCRF-CEM
OVCAR-4 = tested on: OVCAR-4
HT-29 = tested on: HT-29
DMS-273 = tested on: DMS-273
OVCAR-8 = tested on: OVCAR-8
SK-MEL-28 = tested on: SK-MEL-28
RXF 393 = tested on: RXF 393
MDA-N = tested on: MDA-N
NCI/ADR-RES = tested on: NCI/ADR-RES
OVCAR-5 = tested on: OVCAR-5
DU-145 = tested on: DU-145
Hs-578T = tested on: Hs-578T
Malme-3M = tested on: Malme-3M
NCI-H522 = tested on: NCI-H522

Measured: GI50

O=C(O)CCSC(=O)Nc1cccc([N+](=O)[O-])c1
inactive: ACHN 52.7 µM | SF-295 > 100 µM | 786-0 > 100 µM | SW-620 92.9 µM | HOP-62 > 100 µM | NCI-H460 > 100 µM | CCRF-CEM > 100 µM | OVCAR-4 60.8 µM | HT-29 87.1 µM | DMS-273 > 100 µM | OVCAR-8 > 100 µM | SK-MEL-28 > 100 µM | RXF 393 > 100 µM

C=CC1(c2ccc(Cl)c(Cl)c2)OCCO1
inactive: MDA-N > 100 µM | NCI/ADR-RES > 100 µM | ACHN > 100 µM | OVCAR-5 > 100 µM | DU-145 > 100 µM | SF-295 > 100 µM | 786-0 > 100 µM | SW-620 > 100 µM | Hs-578T 40.8 µM | HOP-62 10.8 µM | NCI-H460 > 100 µM | Malme-3M > 100 µM | CCRF-CEM > 100 µM | OVCAR-4 > 100 µM | HT-29 88.5 µM | NCI-H522 > 100 µM | OVCAR-8 > 100 µM | SK-MEL-28 > 100 µM | RXF 393 > 100 µM

COc1ccc(N2C(=O)c3cc([N+](=O)[O-])cnc3S2(=O)=O)cc1
inactive: MDA-N > 100 µM | NCI/ADR-RES > 100 µM | ACHN > 100 µM | OVCAR-5 > 100 µM | DU-145 > 100 µM | SF-295 > 100 µM | 786-0 > 100 µM | SW-620 > 100 µM | Hs-578T > 100 µM | HOP-62 > 100 µM | NCI-H460 > 100 µM | Malme-3M > 100 µM | CCRF-CEM > 100 µM | OVCAR-4 > 100 µM | HT-29 > 100 µM | NCI-H522 > 100 µM | OVCAR-8 > 100 µM | SK-MEL-28 > 100 µM | RXF 393 > 100 µM

CCOC(=O)C(NC(=O)c1nc[nH]c1[N+](=O)[O-])C(C)C (stereo unspecified)
inactive: ACHN > 100 µM | SF-295 47.9 µM | 786-0 71.1 µM | SW-620 > 100 µM | HOP-62 > 100 µM | NCI-H460 50.6 µM | Malme-3M > 100 µM | CCRF-CEM 47.2 µM | OVCAR-4 > 100 µM | HT-29 74 µM | NCI-H522 > 100 µM | DMS-273 53.6 µM | OVCAR-8 84.9 µM | SK-MEL-28 > 100 µM

Cc1cc(S(=O)(=O)NC2=Nc3ccccc3C(c3ccccc3)N2)c(S)cc1Cl (stereo unspecified)
inactive: MDA-N 78 µM | NCI/ADR-RES > 100 µM | ACHN > 100 µM | OVCAR-5 > 100 µM | DU-145 > 100 µM | SF-295 31.5 µM | 786-0 8.2 µM | SW-620 > 100 µM | Hs-578T > 100 µM | HOP-62 > 100 µM | NCI-H460 12.9 µM | Malme-3M > 100 µM | CCRF-CEM 32.6 µM | OVCAR-4 13.6 µM | HT-29 > 100 µM | NCI-H522 > 100 µM | OVCAR-8 > 100 µM | SK-MEL-28 > 100 µM | RXF 393 48.2 µM

CCOc1cc(NC(C)=O)ccc1C(=O)N/N=C/c1ccco1
inactive: MDA-N > 100 µM | NCI/ADR-RES > 100 µM | ACHN 35.6 µM | OVCAR-5 > 100 µM | DU-145 > 100 µM | SF-295 > 100 µM | 786-0 > 100 µM | SW-620 > 100 µM | Hs-578T > 100 µM | HOP-62 > 100 µM | NCI-H460 24.5 µM | Malme-3M > 100 µM | CCRF-CEM 39.3 µM | OVCAR-4 > 100 µM | HT-29 > 100 µM | NCI-H522 > 100 µM | OVCAR-8 > 100 µM | SK-MEL-28 > 100 µM | RXF 393 > 100 µM

Cc1c(O)nc(/C=C/C(=O)O)nc1C(=O)O
inactive: MDA-N > 100 µM | NCI/ADR-RES > 100 µM | ACHN > 100 µM | OVCAR-5 > 100 µM | DU-145 > 100 µM | SF-295 > 100 µM | 786-0 > 100 µM | SW-620 > 100 µM | Hs-578T > 100 µM | HOP-62 > 100 µM | NCI-H460 > 100 µM | Malme-3M > 100 µM | CCRF-CEM > 100 µM | OVCAR-4 > 100 µM | HT-29 > 100 µM | NCI-H522 > 100 µM | OVCAR-8 > 100 µM | SK-MEL-28 > 100 µM | RXF 393 > 100 µM

CCN(CC)C(=S)SS(=O)(=O)c1ccccc1C(=O)O
inactive: MDA-N > 100 µM | NCI/ADR-RES > 100 µM | ACHN > 70.8 µM | OVCAR-5 > 100 µM | DU-145 > 100 µM | SF-295 > 88.5 µM | 786-0 > 100 µM | SW-620 > 100 µM | Hs-578T > 100 µM | HOP-62 > 100 µM | NCI-H460 > 20 µM | Malme-3M > 96.4 µM | CCRF-CEM 82 µM | OVCAR-4 > 100 µM | HT-29 > 100 µM | NCI-H522 2.67 µM | OVCAR-8 > 100 µM | SK-MEL-28 > 100 µM | RXF 393 > 70.3 µM
